What was measured:
Format in all cases: functional, cell-based
A549 = experiment: In vitro cytotoxicity against A549 (human lung cancer)
A2780 = experiment: In vitro cytotoxicity against A2780 (human ovarian cancer)
Bel-7402 = experiment: In vitro cytotoxicity against Bel7402 (human liver cancer); conditions: Bel-7402, Liver
HCT-8 = experiment: In vitro cytotoxicity against HCT-8 (human colon cancer)
KB VCR R = experiment: In vitro cytotoxicity against KB/VCR (Vincristine-resistant cancer cell line); conditions: Homo sapiens
KB = experiment: In vitro cytotoxicity against KB (human epidermoid carcinoma of the nasopharynx)

Structure (SMILES) | IC50 (A549) [nM] | IC50 (A2780) [nM] | IC50 (Bel-7402) [nM] | IC50 (HCT-8) [nM] | IC50 (KB VCR R) [nM] | IC50 (KB) [nM]
CC[C@@]1(OC(=O)Cc2cc(OC)c(OC)c(OC)c2)C(=O)OCc2c1cc1n(c2=O)Cc2c-1nc1ccccc1c2COC(=O)Cc1cc(OC)c(OC)c(OC)c1 | 98 | 68 | 82 | 76 | 947 | 78
CC[C@@]1(O)C(=O)OCc2c1cc1n(c2=O)Cc2cc3cc(OC(=O)COc4ccc(F)cc4)ccc3nc2-1 | 80 | 54 | 95 | 62 | 244 | 53
CC[C@@]1(O)C(=O)OCc2c1cc1n(c2=O)Cc2cc3ccccc3nc2-1 [CAMPTOTHECIN] | 8 | 7 | 7 | 7 | 9 | 9
CC[C@@]1(OC(=O)COc2ccc(F)cc2)C(=O)OCc2c1cc1n(c2=O)Cc2cc3cc(OC(=O)COc4ccc(F)cc4)ccc3nc2-1 | 401 | 15 | 95 | 82 | 295 | 55
CC[C@@]1(OC(=O)COc2ccc(F)cc2)C(=O)OCc2c1cc1n(c2=O)Cc2c-1nc1ccccc1c2COC(=O)COc1ccc(F)cc1 | 293 | 58 | 26 | 52 | > 1000 | 72
CC[C@@]1(OC(=O)COc2ccc(C#N)c(F)c2)C(=O)OCc2c1cc1n(c2=O)Cc2c-1nc1ccccc1c2COC(=O)COc1ccc(C#N)c(F)c1 | 55 | 10 | 33 | 48 | 53 | 9
CC[C@@]1(O)C(=O)OCc2c1cc1n(c2=O)Cc2c-1nc1ccccc1c2COC(=O)COc1ccc(C#N)c(F)c1 | 8 | < 1 | < 1 | < 1 | 437 | < 1
CC[C@@]1(O)C(=O)OCc2c1cc1n(c2=O)Cc2c-1nc1ccccc1c2COC(=O)COc1ccc(OC)cc1 | 69 | 9 | 8 | 9 | 51 | 8
CC[C@@]1(OC(=O)COc2ccc(OC)cc2)C(=O)OCc2c1cc1n(c2=O)Cc2cc3cc(OC(=O)COc4ccc(OC)cc4)ccc3nc2-1 | 718 | 88 | 200 | 97 | 460 | 69
CC[C@@]1(O)C(=O)OCc2c1cc1n(c2=O)Cc2cc3c(CN(C)C)c(O)ccc3nc2-1 [TOPOTECAN] | 87 | 58 | 78 | 74 | 339 | 
CC[C@@]1(OC(=O)COc2ccc(OC)cc2)C(=O)OCc2c1cc1n(c2=O)Cc2c-1nc1ccccc1c2COC(=O)COc1ccc(OC)cc1 | 348 | 71 | 84 | 76 | 267 | 310
CC[C@@]1(O)C(=O)OCc2c1cc1n(c2=O)Cc2cc3cc(OC(=O)COc4ccc(OC)cc4)ccc3nc2-1 | 190 | 65 | 74 | 61 | 275 | 47
CC[C@@]1(O)C(=O)OCc2c1cc1n(c2=O)Cc2c-1nc1ccccc1c2COC(=O)Cc1cc(OC)c(OC)c(OC)c1 | 160 | 61 | 72 | 55 | 340 | 36
CC[C@@]1(O)C(=O)OCc2c1cc1n(c2=O)Cc2c-1nc1ccccc1c2COC(=O)COc1ccc(F)cc1 | 57 | 8 | 9 | 8 | 49 | 7

From ChEMBL document CHEMBL1136321, “Regioselective synthesis and cytotoxicities of camptothecin derivatives modified at the 7-, 10- and 20-positions” (Bioorg Med Chem Lett, 2003)
